This is an account of results in ChEMBL document CHEMBL1201862, “PubChem BioAssay data set” (2004).

A short description of test [1]: inhibitors of intracellular T. cruzi replication, confirmation, NIH3T3 host cells, beta-gal luminescence (AID 2044).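 Further: intracellular parasites grown in NIH/3T3 mouse fibroblasts as host cells; luminescent beta-galactosidase reporter signal from transgenic T. cruzi replicating inside host cells; inhibitors lower the luminescence signal.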 It is filed as functional, cell-based.
The test system of a further test is Streptococcus. Nature of the test: Group A Streptococcus viability loss, dose response, counter-screen for streptokinase expression inhibitor project, luminescence, BacTiterGlo (AID 1915).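 Further: potency for reduction of bacterial viability or growth.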 It is filed as functional, organism-based. Background: A counterscreen serves to expose hits that act by an unwanted route or on another target.
Test [2] has as its target Eukaryotic translation initiation factor 4E (Mus musculus, UniProt P63073). Nature of the test: eIF4E–eIF4G protein interaction inhibitors, dose response, biochemical, TR-FRET (AID 855).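 Further: potency for disrupting eIF4E binding to eIF4GI seen as loss of FRET.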 It is filed as functional. Background: In TR-FRET formats the signal depends on donor and acceptor labels being close together.
The nature of test [3]: cytotoxicity toward NIH3T3 fibroblasts, dose response, counter-screen, cell-based, ATP luminescence, mouse fibroblasts (AID 2010).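 Further: cells exposed to compound for about 90 hours before reading.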 It is filed as functional.
For another test, the system named is H4. Nature of the test: Luminescence Cell-Based Dose Response HTS to Identify Activators of 5'UTR Stem-Loop Driven Prion Protein mRNA Translation in H4 Neuroglioblastoma Cells. [Related pubchem assays: 1829 (Project Summary), 1814 (Primary HTS)]. It is filed as functional. The settings on record: Homo sapiens.
For the next test, the system named is HEK293. Nature of the test: SAR Analysis of small molecule inhibitors of T-cell specific antigen receptor-induced NF-kB activation in a HEK-293T cell line using a luminescence assay - Set 2. [Related pubchem assays (depositor defined):AID435003, AID435012, AID489026]. It is filed as functional, cell-based. The conditions noted are these: Homo sapiens.
Test [4] deals with Heat shock protein HSP 90-alpha (Homo sapiens, UniProt P07900). It is filed as functional, organism-based.
Test [5] in a line: Shn3 3'UTR reporter inhibitors, dose response, cell-based, Clone20 osteoblasts, firefly luciferase, cherry-picked (AID 624132).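 Further: firefly luciferase luminescence from reporter carrying the Shn3 3'UTR in osteoblasts.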 It is filed as functional.
Test [6] addresses T1, Histone-lysine N-methyltransferase NSD2 (Homo sapiens, UniProt O96028).
T1 sequence (O96028 whole entry): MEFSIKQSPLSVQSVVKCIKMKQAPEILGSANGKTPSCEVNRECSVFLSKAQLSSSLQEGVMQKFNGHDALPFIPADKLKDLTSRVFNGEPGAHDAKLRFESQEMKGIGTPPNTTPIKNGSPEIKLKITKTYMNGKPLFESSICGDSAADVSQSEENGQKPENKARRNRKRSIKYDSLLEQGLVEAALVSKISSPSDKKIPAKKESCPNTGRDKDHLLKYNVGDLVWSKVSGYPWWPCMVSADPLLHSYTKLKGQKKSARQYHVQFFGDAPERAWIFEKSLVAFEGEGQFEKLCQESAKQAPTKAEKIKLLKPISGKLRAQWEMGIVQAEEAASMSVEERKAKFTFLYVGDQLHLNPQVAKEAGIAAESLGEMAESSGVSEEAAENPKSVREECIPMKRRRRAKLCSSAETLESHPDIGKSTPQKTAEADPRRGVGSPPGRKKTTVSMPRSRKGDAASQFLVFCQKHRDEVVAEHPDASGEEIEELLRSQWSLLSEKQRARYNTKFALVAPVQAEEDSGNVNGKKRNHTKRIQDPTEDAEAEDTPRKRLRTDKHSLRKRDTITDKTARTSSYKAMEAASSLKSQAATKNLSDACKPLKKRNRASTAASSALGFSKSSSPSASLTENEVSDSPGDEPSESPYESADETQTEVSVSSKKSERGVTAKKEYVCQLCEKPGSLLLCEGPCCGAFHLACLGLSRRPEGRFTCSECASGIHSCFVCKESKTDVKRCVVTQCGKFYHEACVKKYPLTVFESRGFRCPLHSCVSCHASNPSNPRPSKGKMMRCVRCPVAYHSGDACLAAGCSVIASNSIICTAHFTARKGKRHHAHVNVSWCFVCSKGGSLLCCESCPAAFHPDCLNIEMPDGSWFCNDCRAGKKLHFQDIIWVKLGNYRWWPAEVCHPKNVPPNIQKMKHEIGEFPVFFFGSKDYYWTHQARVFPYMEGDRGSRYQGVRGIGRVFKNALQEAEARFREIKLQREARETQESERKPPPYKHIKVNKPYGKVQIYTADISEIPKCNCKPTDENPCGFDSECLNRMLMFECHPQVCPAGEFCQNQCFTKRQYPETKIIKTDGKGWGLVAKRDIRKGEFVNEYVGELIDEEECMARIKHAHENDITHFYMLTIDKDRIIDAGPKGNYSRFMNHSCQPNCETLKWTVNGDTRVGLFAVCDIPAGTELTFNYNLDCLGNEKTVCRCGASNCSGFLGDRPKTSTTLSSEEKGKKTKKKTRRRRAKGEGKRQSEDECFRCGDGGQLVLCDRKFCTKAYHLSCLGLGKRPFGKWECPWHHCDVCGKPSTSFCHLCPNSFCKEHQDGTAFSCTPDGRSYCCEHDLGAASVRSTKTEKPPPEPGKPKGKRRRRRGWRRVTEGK
It is filed as biochemical.

Activity calls are given as the source filed them.

Chain of Eukaryotic translation initiation factor 4E (P63073 whole entry): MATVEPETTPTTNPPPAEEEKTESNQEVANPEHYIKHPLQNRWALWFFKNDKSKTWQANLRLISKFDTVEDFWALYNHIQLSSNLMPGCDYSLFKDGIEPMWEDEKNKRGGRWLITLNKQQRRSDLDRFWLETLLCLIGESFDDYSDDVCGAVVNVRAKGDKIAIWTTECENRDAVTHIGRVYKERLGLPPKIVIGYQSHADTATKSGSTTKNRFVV

Usually EC50 stands for the concentration at which the effect is half-maximal. By IC50 is commonly meant the concentration needed to halve the response being measured. On to `Cc1ccc(-n2sc3ccccc3c2=O)cc1`, for which the EC50 was 0.361 µM (active) in test [1], 3.63 µM (active) in the test with Streptococcus, 9.71 µM (active) in [3] and 88.2 µM (active) with H4. For the same compound, in [2], the concentration for half-maximal inhibition (IC50) was 15.2 µM (active).
In general, AC50 refers to the concentration giving half of the maximal activity seen. For `CCC(=O)NC(c1ccc(C)cc1)c1ccc2cccnc2c1O` (stereo not given), in the test on HEK293, the IC50 was 7.02 µM (active). The concentration for a half-maximal effect (EC50) was 0.481 µM (active) in test [1] and 0.687 µM (active) in [3]. Moreover, the AC50 in [4] is 3.35 µM (active); in [5], 0.704 µM (active).
On to `N/C(=N\N=C/c1ccc(-c2ccc(O)c(C(=O)O)c2)o1)N[N+](=O)[O-]`, for which, in test [2], the IC50 is 63.6 µM (inactive). Besides, the half-maximal activity concentration (AC50) in test [6] is 7.57 µM (active).
On to `CC(=O)N(/N=C1\Sc2ccccc2C1=O)c1ccccc1C`, for which the AC50 in test [6] was 0.548 µM (active). In addition, the EC50 with H4 is 33.4 µM (active).
Take `CCCC(=O)NC(c1ccc(Cl)cc1)c1ccc2cccnc2c1O` (stereo not given): the IC50 in the test with HEK293 was 4.23 µM (active). Moreover, the EC50 in [1] is 0.226 µM (active); with Streptococcus, 30.1 µM (active); in test [3], 0.425 µM (active). For the same compound, the AC50 in [4] is 4.04 µM (active); in test [5] it was 0.937 µM (active).
